The source of these data is US8324268B2, “Substituted furancarboxamides, and use thereof” (AiCuris GmbH & Co. KG, priority 2008, dated 2012).

The structures appear in SMILES notation.

Experiment [1] concerns HIV-1LAI. Put plainly: H9 assay with wild-type HIV-1 (HIV-1LAI supernatant infection, AlamarBlue). Type of experiment: cell-based. As to conditions: Human immunodeficiency virus 1, H9 cells, 10% FCS. The protocol: For the mixture for a 96-well MTP, 3 million PBLs are pelleted, suspended in 1 ml of RPMI 1640 medium/10% FCS and incubated together with a suitable amount of HIV-1LAI (NIH AIDS Research & Reference Reagent Program, Germantown, USA) at 37° C. for 2 hours (pellet infection). Unadsorbed viruses are subsequently washed out with PBS, and the infected cells are pelleted again and suspended in 18 ml of RPMI 1640 medium/10% FCS/interleukin-2 (40 U/ml). 180 μl thereof are pipetted into each well of a white 96-well MTP with 20 μl of test substance in suitable dilution. Alternatively, after preparation of the substance dilutions in the MTP, the HIV is pipetted in together with the cells and is not washed out again (supernatant infection). In order to avoid edge effects, the wells at the edge of the MTP are not used for substance dilutions. The second vertical row of the MTP contains only infected cells (virus control) and the eleventh vertical row only uninfected cells (cell control), in each case in RPMI 1640 medium/10% FCS/interleukin-2 (40 U/ml). The other wells of the MTP contain the compounds of the invention in various concentrations starting from the third vertical row, from which the test substances are diluted in 3-fold steps up to the tenth vertical row 3^7-fold. The test substances are dissolved in DMSO, whereby the final DMSO concentration in the test mixture is 1%. The test mixtures are incubated at 37° C./5% CO2. After 5 and 7 days, 50 μl of cell-free supernatant are removed from each well to determine the amount of p24 present by means of a p24 ELISA (HIV-1 p24^CA Antigen Capture Assay Kit, NCI-Frederick Cancer Research and Development Center, Frederick, USA). From the resulting values of the photometric evaluation (450/620 nm) the EC50 values of the test substances are determined as the concentration at which the amount of p24 is 50% of the untreated infected cells.
Alternatively, H9 cells (ATCC, Wesel, Germany) are employed instead of PBLs for testing the test substances. H9 cells are incubated in RPMI 1640 medium with 2% or 10% FCS as a HIV-ILAI supernatant infection at 37° C./5% CO2, (20 μl of substance dilution and 80 μl of cells/virus per well) in accordance with the pattern described above for 5 days. Subsequently, 10 μl of AlamarBlue® (Invitrogen, Karlsruhe, Germany) are added to each well, and the MTPs are incubated at 37° C. for 3 hours before the fluorimetric evaluation takes place (544/590 nm). The resulting values are about 40 000 for the untreated uninfected cells and about 7000 for the untreated infected cells. In the low concentration range, the EC50 values of the test substances are determined as the concentration at which the fluorescence is 50% of the untreated uninfected cells (in each case subtracting the values of the untreated infected cells). In addition, in the high concentration range, the CC50 values of the test substances are determined as the concentration at which the fluorescence is 50% of the untreated uninfected cells (in each case subtracting the values of the untreated infected cells).
(Alamar Blue is a resazurin reagent that responds to reducing activity.)

Experiment [2] concerns HIV-1NL4-3 wt. Put plainly: Light assay with wild-type HI reporter virus in MT4 7F2 cells. It is filed as cell-based. The following applies: Human immunodeficiency virus 1, 2% FCS. The protocol: (§1) For the mixture for a 96-well MTP, 3 million MT4 7F2 cells are pelleted, suspended in 1 ml of RPMI 1640 medium without phenol red (Invitrogen, Karlsruhe, Germany)/10% FCS/10% AIM-V (Invitrogen, Karlsruhe, Germany) and incubated together with a suitable amount of the corresponding HIV-1NL4-3 reporter virus at 37° C. for 2 hours (pellet infection). Unadsorbed viruses are subsequently washed out with PBS, and the infected cells are pelleted again and suspended in 8 ml of RPMI 1640 medium without phenol red/2% or 10% FCS/10% AIM-V. 80 μl thereof are pipetted into each well of a white 96-well MTP with 20 μl of test substance in suitable dilution. To avoid edge effects, the wells on the edge of the MTP are not used for substance dilutions. The second vertical row of the MTP contains only infected cells (virus control) and the eleventh vertical row only uninfected cells (cell control), in each case in RPMI 1640 medium without phenol red/2% or 10% FCS/10% AIM-V. The other wells of the MTP contain the compounds of the invention in various concentrations starting from the third vertical row, from which the test substances are diluted in 3-fold steps up to the tenth vertical row 3^7-fold. The test substances are dissolved in DMSO, whereby the final DMSO concentration in the test mixture is 1%. The test mixtures are incubated at 37° C./5% CO2 for five days and, after the addition of 15 μl of Lu164 substrate (5 mg/ml coelenterazine dissolved in 30 μM glutathione/DMSO, 100 mM NaCl, 1M MES, 100 mM glutathione), evaluated by luminometry. The resulting values are in the region of 1 000 000 RLUs (relative light units) for the virus control and 300 to 400 RLUs for the cell control. The EC50 values of the test substances are determined as the concentration at which the virus replication measured in RLUs is 50% of the untreated infected cells.

The target in experiment [3] is T1, reverse transcriptase (Human immunodeficiency virus type 1 group M subtype B, UniProt P03366).
T1 construct: negative control (mixture without reverse transcriptase); purchased Roche Diagnostics GmbH, Mannheim, Germany
Description: Biochemical reverse transcriptase assay (Reverse Transcriptase Assay, colorimetric, Roche). The following applies: read-out: IC50 (nM) RT assay. The protocol:
The “Reverse Transcriptase Assay, colorimetric” (Roche Diagnostics GmbH, Mannheim, Germany) is used in accordance with the manufacturer's information. The test substances are dissolved in DMSO and are used in the test diluted in 5-fold steps (final DMSO concentration 1%). The resulting values of the photometric evaluation (405/492 nm) are less than 0.1 for the negative control (mixture without reverse transcriptase) and are in the region of 1.5 for the positive control (mixture without test substance). The IC50 values of the test substances are determined as the concentration of the test substance dilution at which the measured optical density is 50% of the positive control.

Experiment [4] deals with HIV-1NL4-3 K103N-Y181C. Description: Light assay with inhibitor-resistant HI reporter virus in MT4 7F2 cells. It is filed as cell-based. As to conditions: Human immunodeficiency virus 1, read-out: EC50 (nM) MT4 7F2 cells HIV-1NL4-3 K103N-Y181C 2% FCS. The protocol:
as §1

By EC50 is commonly meant the concentration needed to bring the measured effect to its halfway point. The term IC50 denotes the concentration at which inhibition is half-maximal. Consider `O=C1CN(C(=O)c2cc(-c3cccc(Cl)c3)c(-c3cccc(Cl)c3)o2)CCN1` [Example 30, 4-{[4,5-Bis(3-chlorophenyl)furan-2-yl]carbonyl}piperazin-2-one], for which the EC50 is 200 nM in experiment [1], 25 nM in experiment [2] and 650 nM in experiment [4]. Besides, in experiment [3], the IC50 is 750 nM.

On to `O=C(c1cc(-c2cc(F)cc(Cl)c2)c(-c2ccc(F)c(Cl)c2)o1)N1CCOCC1` [Example 9, [5-(3-Chloro-4-fluorophenyl)-4-(3-chloro-5-fluorophenyl)furan-2-yl](morpholin-4-yl)methanone], for which the EC50 in experiment [1] came to 100 nM; in experiment [2], 19 nM; in experiment [4], 500 nM.

As to `N#Cc1cccc(-c2oc(C(=O)N3CC[C@@H](O)C3)cc2-c2cc(F)cc(Cl)c2)c1` [Example 10, 3-[3-(3-Chloro-5-fluorophenyl)-5-{[(3R)-3-hydroxypyrrolidin-1-yl]carbonyl}furan-2-yl]benzenecarbonitrile], the EC50 in experiment [1] was 14 nM; in experiment [2], 1 nM; in experiment [4] it was 183 nM.

For the molecule `N#Cc1cc(F)cc(-c2cc(C(=O)N3CCNC(=O)C3)oc2-c2cccc(Cl)c2)c1` [Example 33, 3-{2-(3-Chlorophenyl)-5-[(3-oxopiperazin-1-yl)carbonyl]furan-3-yl}-5-fluorobenzenecarbonitrile], the EC50 is 25 nM in experiment [1], less than 1.5 nM in experiment [2] and 200 nM in experiment [4].

On to `O=C1CN(C(=O)c2cc(-c3cccc(Cl)c3)c(-c3ccc(F)c(Cl)c3)o2)CCN1` [Example 22, 4-{[5-(3-Chloro-4-fluorophenyl)-4-(3-chlorophenyl)furan-2-yl]carbonyl}piperazin-2-one], for which the EC50 in experiment [1] was determined as 113 nM; in experiment [2], 7 nM; in experiment [4], 185 nM.

For `N#Cc1cccc(-c2oc(C(=O)N3CCNC(=O)C3)cc2-c2cc(F)cc(Cl)c2)c1` [Example 8, 3-{3-(3-Chloro-5-fluorophenyl)-5-[(3-oxopiperazin-1-yl)carbonyl]furan-2-yl}benzenecarbonitrile], the figures for the EC50 in experiment [1], in experiment [2] and in experiment [4] were 7 nM, 1 nM and 160 nM, respectively.

On to `N#Cc1cccc(-c2oc(C(=O)N3CC[S+]([O-])C3)cc2-c2cc(F)cc(Cl)c2)c1` (centres unmarked) [Example 3, 3-{3-(3-Chloro-5-fluorophenyl)-5-[(1-oxido-1,3-thiazolidin-3-yl)carbonyl]furan-2-yl}benzenecarbonitrile], for which the EC50 in experiment [1] is 4.5 nM; in experiment [2], less than 1.5 nM; in experiment [4], 160 nM.

With `Cc1cc(-c2oc(C(=O)N3CCNC(=O)C3)cc2-c2cccc(Cl)c2)ccc1F` [Example 21, 4-{[4-(3-Chlorophenyl)-5-(4-fluor-3-methylphenyl)furan-2-yl]carbonyl}piperazin-2-one], the results for the EC50 in experiment [1], in experiment [2] and in experiment [4] were 200 nM, 15 nM and 120 nM, respectively.

Take `N#Cc1cc(-c2oc(C(=O)N3CNC(=O)C3)cc2-c2cccc(Cl)c2)ccc1F` [Example 26, 5-{3-(3-Chlorophenyl)-5-[(4-oxoimidazolidin-1-yl)carbonyl]furan-2-yl}-2-fluorobenzenecarbonitrile]: the EC50 in experiment [1] came out at 150 nM; in experiment [2], 20 nM; in experiment [4] it was 250 nM.

For `N#Cc1cc(-c2oc(C(=O)N3CCNC(=O)C3)cc2-c2cccc(Cl)c2)ccc1F` [Example 24, 5-{3-(3-Chlorophenol)-5-[(3-oxopiperazin-1-yl)carbonyl]furan-2-yl}-2-fluorobenzenecarbonitrile], the EC50 in experiment [1] was 47 nM; in experiment [2], 4 nM; in experiment [4], 320 nM.

With `N#Cc1cc(F)cc(-c2cc(C(=O)N3CCOCC3)oc2-c2cccc(C#N)c2)c1` [Example 34, 3-[2-(3-Cyanophenyl)-5-(morpholin-4-ylcarbonyl)furan-3-yl]-5-fluorobenzenecarbonitrile], the EC50 was 30 nM in experiment [1], less than 1.5 nM in experiment [2] and 300 nM in experiment [4].

On to `N#Cc1cc(F)cc(-c2cc(C(=O)N3CNC(=O)C3)oc2-c2ccc(F)c(Cl)c2)c1` [Example 31, 3-{2-(3-Chloro-4-fluorophenyl)-5-[(4-oxoimidazolidin-1-yl)carbonyl]furan-3-yl}-5-fluorobenzenecarbonitrile], for which the results for the concentration for a half-maximal effect (EC50) in experiment [1], in experiment [2] and in experiment [4] were 80 nM, 8 nM and 80 nM, respectively.

Consider `O=C1CN(C(=O)c2cc(-c3cc(F)cc(Cl)c3)c(-c3ccc(F)c(Cl)c3)o2)CN1` [Example 11, 1-{[5-(3-Chloro-4-fluorophenyl)-4-(3-chloro-5-fluorophenyl)furan-2-yl]-carbonyl}imidazolidin-4-one], for which the EC50 in experiment [1] amounted to 77 nM; in experiment [2] it was 20 nM; in experiment [4], 255 nM. Moreover, the IC50 in experiment [3] is 370 nM.

As to `O=C1CN(C(=O)c2cc(-c3cc(F)cc(F)c3)c(-c3cccc(Cl)c3)o2)CN1` [Example 15, 1-{[5-(3-Chlorophenyl-1)-4-(3,5-difluorophenyl)furan-2-yl]carbonyl}imidazolidin-4-one], the EC50 in experiment [1] is 110 nM; in experiment [2], 9 nM; in experiment [4] it was 350 nM.

With `O=C(c1cc(-c2cc(F)cc(Cl)c2)c(-c2ccc(F)c(Cl)c2)o1)N1CC[S+]([O-])C1` (centres unmarked) [Example 4, [5-(3-Chloro-4-fluorophenyl-1)-4-(3-chloro-5-fluorophenyl)furan-2-yl](1-oxido-1,3-thiazolidin-3-yl)methanone], the results for the EC50 in experiment [1], in experiment [2] and in experiment [4] were 12 nM, less than 1.5 nM and 261 nM, respectively.
